Measurements taken from ChEMBL document CHEMBL3045052, “Effect of the lipophilic parameter (log P) on the anti-parasitic activity of imidazo[1,2-a]pyridine derivatives” (Med Chem Res, 2012).
Converted amounts (≈) assume the structure as drawn.

Key:
[1] = Partition coefficient, log P of compound at 1:2 1-octanol/water volume ratio by spectrophotometer; format: physicochemical
[2] = Partition coefficient, log P of compound at 1:1 1-octanol/water volume ratio by spectrophotometer; format: physicochemical
Trichomonas vaginalis [3] = assay: Antiparasitic activity against Trichomonas vaginalis GT3 after 24 hr by Alamar blue assay; format: functional; settings: GT3, 24 h
[4] = Partition coefficient, log P of compound at 2:1 1-octanol/water volume ratio by spectrophotometer; format: physicochemical
Trichomonas vaginalis [5] = assay: Antiparasitic activity against Trichomonas vaginalis GT3 after 48 hr by Alamar blue assay; format: functional, organism-based; settings: GT3, 48 h

Compound	logP [1]	logP [2]	MIC (Trichomonas vaginalis [3])	logP [4]	EC50 (Trichomonas vaginalis [5])	MIC (Trichomonas vaginalis [5])
Cc1cccc2nc(C(N)=O)c([N+](=O)[O-])n12	0.69	0.67	9.09 µM (≈ 2 µg/mL)	0.695	14.6 µM	9.09 µM (≈ 2 µg/mL)
O=[N+]([O-])c1cnc2ccccn12	0.96	0.938	3.01 µM (≈ 0.491 µg/mL)	0.922	2.45 µM	3.07 µM (≈ 0.501 µg/mL)
CCOC(=O)c1nc2cccc(C)n2c1[N+](=O)[O-]	1.2	1.27	4.02 µM (≈ 1 µg/mL)	1.3	9.11 µM	4.02 µM (≈ 1 µg/mL)
Cc1cccc2nc(NC3CCCCC3)c([N+](=O)[O-])n12	1.5	1.56	58.4 µM (≈ 16 µg/mL)	1.5	64.3 µM	29.2 µM (≈ 8.01 µg/mL)
CCOC(=O)c1nc2ccccn2c1[N+](=O)[O-]	1.04	0.983	2.13 µM (≈ 0.501 µg/mL)	0.963	3.96 µM	2.13 µM (≈ 0.501 µg/mL)
NC(=O)c1nc2ccccn2c1[N+](=O)[O-]	-0.569	-0.515	9.71 µM (≈ 2 µg/mL)	-0.54	41.3 µM	9.71 µM (≈ 2 µg/mL)
Cc1ncc([N+](=O)[O-])n1CCO [METRONIDAZOLE]	0.11	0.12	2.92 µM (≈ 0.5 µg/mL)	0.115	1.2 µM	2.92 µM (≈ 0.5 µg/mL)
N#Cc1nc2ccccn2c1[N+](=O)[O-]	0.641	0.691	5.32 µM (≈ 1 µg/mL)	0.692	9.68 µM	2.66 µM (≈ 0.5 µg/mL)
Cc1cccc2nc(C#N)c([N+](=O)[O-])n12	1.12	1.19	4.95 µM (≈ 1 µg/mL)	1.08	12.1 µM	2.48 µM (≈ 0.501 µg/mL)
O=C(O)c1nc2ccccn2c1[N+](=O)[O-]	-0.042	-0.041	19.3 µM (≈ 4 µg/mL)	-0.038	21.1 µM	19.3 µM (≈ 4 µg/mL)
O=[N+]([O-])c1c(NC2CCCCC2)nc2ccccn12	1.5	1.54	61.5 µM (≈ 16 µg/mL)	1.5	61.5 µM	30.8 µM (≈ 8.02 µg/mL)
